Laboratory results as given in PubChem BioAssay AID276 (DTP/NCI, 2004).
“And” between values parts separate entries of the source, which are not always exact repeats. Equal entries are not always repeated. Inconclusive results and toxic doses are left out.

Test system: B6C3F1 mice, Lewis lung carcinoma iv, survival T/C
Experiment: NCI In Vivo Anticancer Drug Screen. Data for tumor model Lewis Lung Carcinoma (intravenous) in B6C3F1 mice
Conditions: endpoint: median survival time, higher = longer survival
Procedure, shortened: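 T/C ratio derived from survival of compound-treated versus vehicle-treated mice bearing transplantable tumors.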

[1] = dose: 16.0 mg/kg/injection, schedule: Q01DX009 (ip), vehicle: saline with Tween-80
[2] = dose: 1.56 mg/kg/injection, schedule: Q01DX009 (ip), vehicle: saline
[3] = dose: 12.5 mg/kg/injection, schedule: Q01DX009 (ip), vehicle: saline
[4] = dose: 50.0 mg/kg/injection, schedule: Q01DX009 (ip), vehicle: saline
[5] = dose: 100.0 mg/kg/injection, schedule: Q01DX009 (ip), vehicle: saline
[6] = dose: 200.0 mg/kg/injection, schedule: Q01DX009 (ip), vehicle: saline
[7] = dose: 25.0 mg/kg/injection, schedule: Q01DX009 (ip), vehicle: Klucel (hydroxypropylcellulose) (HPC)
[8] = dose: 50.0 mg/kg/injection, schedule: Q01DX009 (ip), vehicle: Klucel (hydroxypropylcellulose) (HPC)
[9] = dose: 100.0 mg/kg/injection, schedule: Q01DX009 (ip), vehicle: Klucel (hydroxypropylcellulose) (HPC)
[10] = dose: 12.5 mg/kg/injection, schedule: Q01DX009 (ip), vehicle: Klucel (hydroxypropylcellulose) (HPC)

SMILES: O=NN(CCCl)C(=O)NC1CCC(=O)NC1=O (stereo unspecified)
- T/C (dose: 1.0 mg/kg/injection, schedule: Q01DX009 (ip), vehicle: saline with Tween-80): 113 % of control
- T/C (dose: 4.0 mg/kg/injection, schedule: Q01DX009 (ip), vehicle: saline with Tween-80): 225 % of control
- T/C (dose: 8.0 mg/kg/injection, schedule: Q01DX009 (ip), vehicle: saline with Tween-80): 312 % of control
- T/C [1]: 93 % of control

SMILES: N=C(N)CCCCCCCCC(=N)N
- T/C (dose: 0.79 mg/kg/injection, schedule: Q01DX009 (ip), vehicle: saline): 112 % of control
- T/C [2]: 119 % of control
- T/C (dose: 3.12 mg/kg/injection, schedule: Q01DX009 (ip), vehicle: saline): 112 % of control
- T/C (dose: 6.25 mg/kg/injection, schedule: Q01DX009 (ip), vehicle: saline): 124 % of control
- T/C (dose: 12.5 mg/kg/injection, schedule: Q01DX001 (ip), vehicle: saline): 97 % of control
- T/C [3]: 115 % of control
- T/C (dose: 25.0 mg/kg/injection, schedule: Q01DX001 (ip), vehicle: saline): 103 % of control
- T/C (dose: 50.0 mg/kg/injection, schedule: Q01DX001 (ip), vehicle: saline): 107 % of control

SMILES: O=CC(O)C(O)C(O)C(O)C(=O)O.[NH-]C1CCCCC1[NH-].[Pt+2] (stereo unspecified)
- T/C (dose: 0.2 mg/kg/injection, schedule: Q01DX009 (ip), vehicle: saline): 93 % of control
- T/C (dose: 0.39 mg/kg/injection, schedule: Q01DX009 (ip), vehicle: saline): 94 % of control
- T/C (dose: 0.78 mg/kg/injection, schedule: Q01DX009 (ip), vehicle: saline): 93 % of control
- T/C [2]: 106 % of control

SMILES: COC(=O)[C@@]12OC[C@]34[C@H]([C@@H](O)[C@@H]1O)[C@@]1(C)CC(=O)C(O)=C(C)[C@@H]1C[C@H]3OC(=O)[C@H](OC(=O)/C=C(\C)C(C)C)[C@@H]24
- T/C (dose: 0.25 mg/kg/injection, schedule: Q01DX009 (ip), vehicle: saline + alcohol): 102 % of control
- T/C (dose: 0.5 mg/kg/injection, schedule: Q01DX009 (ip), vehicle: saline + alcohol): 104 % of control
- T/C (dose: 1.0 mg/kg/injection, schedule: Q01DX009 (ip), vehicle: saline + alcohol): 107 % of control

SMILES: Nc1nncs1
- T/C (dose: 15.19 mg/kg/injection, schedule: Q01DX009 (ip), vehicle: Klucel (hydroxypropylcellulose) (HPC)): 106 % of control
- T/C (dose: 20.25 mg/kg/injection, schedule: Q01DX009 (ip), vehicle: Klucel (hydroxypropylcellulose) (HPC)): 100 % of control
- T/C (dose: 27.0 mg/kg/injection, schedule: Q01DX009 (ip), vehicle: Klucel (hydroxypropylcellulose) (HPC)): 113 % of control
- T/C (dose: 36.0 mg/kg/injection, schedule: Q01DX009 (ip), vehicle: Klucel (hydroxypropylcellulose) (HPC)): 103 % of control and 116 % of control
- T/C (dose: 48.0 mg/kg/injection, schedule: Q01DX009 (ip), vehicle: Klucel (hydroxypropylcellulose) (HPC)): 103 % of control

SMILES: O=NN(CCF)C(=O)NC1C(O)CCCC1O (stereo unspecified)
- T/C (dose: 2.5 mg/kg/injection, schedule: Q01DX009 (ip), vehicle: saline): 116 % of control
- T/C (dose: 10.0 mg/kg/injection, schedule: Q01DX009 (ip), vehicle: saline): 312 % of control
- T/C (dose: 20.0 mg/kg/injection, schedule: Q01DX009 (ip), vehicle: saline): 104 % of control

SMILES: CC(CN1CC(=O)NC(=O)C1)N1CC(=O)NC(=O)C1 (stereo unspecified)
- T/C (dose: 108.0 mg/kg/injection, schedule: Q04DX003 (ip), vehicle: Klucel (hydroxypropylcellulose) (HPC)): 109 % of control
- T/C (dose: 180.0 mg/kg/injection, schedule: Q04DX003 (ip), vehicle: Klucel (hydroxypropylcellulose) (HPC)): 119 % of control
- T/C (dose: 300.0 mg/kg/injection, schedule: Q04DX003 (ip), vehicle: Klucel (hydroxypropylcellulose) (HPC)): 158 % of control

SMILES: CCS/C(SC)=C(/c1ccccc1)[P+](c1ccccc1)(c1ccccc1)c1ccccc1
- T/C (dose: 0.12 mg/kg/injection, schedule: Q01DX009 (ip), vehicle: Klucel (hydroxypropylcellulose) (HPC)): 106 % of control
- T/C (dose: 0.25 mg/kg/injection, schedule: Q01DX009 (ip), vehicle: Klucel (hydroxypropylcellulose) (HPC)): 108 % of control
- T/C (dose: 0.5 mg/kg/injection, schedule: Q01DX009 (ip), vehicle: Klucel (hydroxypropylcellulose) (HPC)): 101 % of control
- T/C (dose: 1.0 mg/kg/injection, schedule: Q01DX009 (ip), vehicle: Klucel (hydroxypropylcellulose) (HPC)): 104 % of control
- T/C (dose: 1.5 mg/kg/injection, schedule: Q01DX009 (ip), vehicle: Klucel (hydroxypropylcellulose) (HPC)): 100 % of control
- T/C (dose: 2.0 mg/kg/injection, schedule: Q01DX009 (ip), vehicle: Klucel (hydroxypropylcellulose) (HPC)): 93 % of control

SMILES: O=[N+]([O-])c1ccc(Sc2ccncn2)c([N+](=O)[O-])c1
- T/C (dose: 6.25 mg/kg/injection, schedule: Q01DX009 (ip), vehicle: saline with Tween-80): 90 % of control
- T/C (dose: 12.5 mg/kg/injection, schedule: Q01DX009 (ip), vehicle: saline with Tween-80): 102 % of control
- T/C (dose: 25.0 mg/kg/injection, schedule: Q01DX009 (ip), vehicle: saline with Tween-80): 95 % of control
- T/C (dose: 50.0 mg/kg/injection, schedule: Q01DX009 (ip), vehicle: saline with Tween-80): 86 % of control
- T/C (dose: 100.0 mg/kg/injection, schedule: Q01DX009 (ip), vehicle: saline with Tween-80): 99 % of control

SMILES: CCCCCCCC(=O)N/N=C(\CO)[C@]1(O)Cc2c(O)c3c(c(O)c2[C@@H](OC2CC(N)C(O)C(C)O2)C1)C(=O)c1c(OC)cccc1C3=O (stereo partly specified)
- T/C (dose: 1.5 mg/kg/injection, schedule: Q01DX009 (ip), vehicle: saline): 100 % of control
- T/C (dose: 1.5 mg/kg/injection, schedule: Q01DX009 (ip), vehicle: water): 108 % of control
- T/C (dose: 3.0 mg/kg/injection, schedule: Q01DX009 (ip), vehicle: saline): 102 % of control
- T/C (dose: 3.0 mg/kg/injection, schedule: Q01DX009 (ip), vehicle: water): 104 % of control
- T/C (dose: 6.0 mg/kg/injection, schedule: Q01DX009 (ip), vehicle: saline): 105 % of control
- T/C (dose: 6.0 mg/kg/injection, schedule: Q01DX009 (ip), vehicle: water): 99 % of control
- T/C (dose: 12.0 mg/kg/injection, schedule: Q01DX009 (ip), vehicle: saline): 112 % of control
- T/C (dose: 12.0 mg/kg/injection, schedule: Q01DX009 (ip), vehicle: water): 92 % of control
- T/C (dose: 24.0 mg/kg/injection, schedule: Q01DX009 (ip), vehicle: saline): 87 % of control

SMILES: C[Si](C)(C)O/C=C1/CCOC1=O
- T/C [3]: 93 % of control
- T/C (dose: 25.0 mg/kg/injection, schedule: Q01DX009 (ip), vehicle: saline): 101 % of control
- T/C [4]: 94 % of control
- T/C [5]: 97 % of control
- T/C [6]: 91 % of control
- T/C (dose: 400.0 mg/kg/injection, schedule: Q01DX009 (ip), vehicle: saline): 94 % of control

SMILES: C=C(C)[C@@H]1CCc2c(O)c(O)c(=O)cc(C)c2C1
- T/C (dose: 3.12 mg/kg/injection, schedule: Q01DX009 (ip), vehicle: Klucel (hydroxypropylcellulose) (HPC)): 90 % of control
- T/C (dose: 6.25 mg/kg/injection, schedule: Q01DX009 (ip), vehicle: Klucel (hydroxypropylcellulose) (HPC)): 92 % of control
- T/C [7]: 102 % of control
- T/C [8]: 97 % of control
- T/C [9]: 90 % of control

SMILES: Cc1noc(N)c1N
- T/C (dose: 12.5 mg/kg/injection, schedule: Q01DX009 (ip), vehicle: water): 101 % of control
- T/C (dose: 25.0 mg/kg/injection, schedule: Q01DX009 (ip), vehicle: water): 95 % of control
- T/C (dose: 50.0 mg/kg/injection, schedule: Q01DX009 (ip), vehicle: water): 102 % of control
- T/C (dose: 100.0 mg/kg/injection, schedule: Q01DX009 (ip), vehicle: water): 92 % of control
- T/C (dose: 200.0 mg/kg/injection, schedule: Q01DX009 (ip), vehicle: water): 98 % of control
- T/C (dose: 400.0 mg/kg/injection, schedule: Q01DX009 (ip), vehicle: water): 106 % of control

SMILES: Cc1c(O)ccc(=O)n1O
- T/C [1]: 101 % of control
- T/C (dose: 32.0 mg/kg/injection, schedule: Q01DX009 (ip), vehicle: saline with Tween-80): 99 % of control
- T/C (dose: 64.0 mg/kg/injection, schedule: Q01DX009 (ip), vehicle: saline with Tween-80): 103 % of control
- T/C (dose: 128.0 mg/kg/injection, schedule: Q01DX009 (ip), vehicle: saline with Tween-80): 89 % of control

SMILES: CN(C)/N=N/c1nc[nH]c1C(N)=O
- T/C [10]: 229 % of control

SMILES: O=C(O)C1(NO)CCCCC1
- T/C [10]: 95 % of control and 106 % of control
- T/C [7]: 101 % of control and 106 % of control
- T/C [8]: 100 % of control and 101 % of control
- T/C [9]: 102 % of control and 105 % of control
- T/C (dose: 200.0 mg/kg/injection, schedule: Q01DX009 (ip), vehicle: Klucel (hydroxypropylcellulose) (HPC)): 95 % of control and 108 % of control
- T/C (dose: 400.0 mg/kg/injection, schedule: Q01DX009 (ip), vehicle: Klucel (hydroxypropylcellulose) (HPC)): 97 % of control and 109 % of control

SMILES: CC[As](=O)(O)CC
- T/C [4]: 95 % of control
- T/C [5]: 103 % of control
- T/C [6]: 103 % of control
